PubChem BioAssay (NCI)
“And” between values parts separate entries of the source, which are not always exact repeats. Identical values can stand only once.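 1) Cells in 96-well plates. 2) Compound, 48 h, 5 concentrations. 3) Linear interpolation between surrounding doses. 4) Unreached endpoint = highest concentration. GI50 is the concentration that inhibits growth by half. TGI: total growth inhibition.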

How the values were obtained:
Assay in all cases: inhibition of tumour cell growth, NCI panel, 48 h
NCI-H23 lung = system: NCI-H23 lung
KM12 colon = system: KM12 colon
HT29 colon = system: HT29 colon
M14 melanoma = system: M14 melanoma
CCRF-CEM leukemia = system: CCRF-CEM leukemia
SF-539 CNS = system: SF-539 CNS
OVCAR-8 ovarian = system: OVCAR-8 ovarian
HL-60(TB) leukemia = system: HL-60(TB) leukemia
LOX IMVI melanoma = system: LOX IMVI melanoma
SF-295 CNS = system: SF-295 CNS

Row | SMILES | GI50 (NCI-H23 lung) | TGI (NCI-H23 lung) | GI50 (KM12 colon) | TGI (KM12 colon) | GI50 (HT29 colon) | TGI (HT29 colon) | GI50 (M14 melanoma) | TGI (M14 melanoma) [µM] | GI50 (CCRF-CEM leukemia) | TGI (CCRF-CEM leukemia) [µM] | GI50 (SF-539 CNS) | TGI (SF-539 CNS) | GI50 (OVCAR-8 ovarian) | TGI (OVCAR-8 ovarian) | GI50 (HL-60(TB) leukemia) | TGI (HL-60(TB) leukemia) [µM] | GI50 (LOX IMVI melanoma) | TGI (LOX IMVI melanoma) | GI50 (SF-295 CNS) | TGI (SF-295 CNS)
1 | COC(=O)Nc1nc2ccc(C(=O)c3cccc(I)c3)cc2[nH]1 | 0.183 µM | 21.1 µM | 0.0418 µM | 5.7 µM | 0.0375 µM | 26 µM | 0.072 µM | 20.7 | 0.0402 µM | 5.26 | 0.0589 µM | 0.384 µM | 0.132 µM | 30.4 µM | 0.0315 µM | 0.163 | 0.0612 µM | 3.92 µM | 0.0647 µM | 5.94 µM
2 | CC1(C)CC(=O)C(CC2C(=O)CCCC2=O)C(=O)C1 | – | > 100 µM | – | > 100 µM | – | > 100 µM | – | > 100 | – | > 100 | – | > 100 µM | – | > 100 µM | – | > 100 | – | > 100 µM | – | > 100 µM
3 | Cc1ccsc1C(NC(=O)c1ccccc1)c1cc(Cl)c2cccnc2c1O (centres undefined) | 0.65 µM | 17.5 µM | 0.493 µM | 16 µM | 0.548 µM | 20.7 µM | 0.892 µM | 9.43 | 0.48 µM | 39 | 0.479 µM | 10.4 µM | 0.405 µM | 24 µM | 0.808 µM | 5.07 | 0.504 µM | 2.32 µM | 0.333 µM | 12.2 µM
4 | NC1CC(=O)c2c(-c3cccs3)sc(-c3cccs3)c21 (centres undefined) | 23.1 µM | 57.6 µM | 25 µM | > 100 µM | 19.5 µM | 50.1 µM | 37.3 µM | > 100 | 3.89 µM | > 100 | 21.3 µM | 47.6 µM | 30.2 µM | > 100 µM | 20.5 µM | 61.1 | 12.7 µM | 29 µM | 85.4 µM | > 100 µM
5 | COc1cc2ncnc(Oc3ccc(NC(=O)Nc4ccc(CN5CCOCC5)c(C(F)(F)F)c4)c4ccccc34)c2cc1OC | 0.785 µM | 4.16 µM | 0.199 µM | 2.3 µM | 0.547 µM | 10.3 µM | 0.935 µM | 4.14 | 1.18 µM | 40.7 | 1.36 µM | 16.1 µM | 0.537 µM | 6.53 µM | 0.502 µM | 2.76 | 1.09 µM | 2.82 µM | 1.36 µM | 5.54 µM
6 | COc1cc(OC)c(/C=C/C(=O)c2c(OC)cc(OC)cc2OC)c(OC)c1 | 1.35 µM | 6.67 µM | 0.469 µM | 2.57 µM | 0.381 µM | 2.1 µM | 0.38 µM | 1.78 | 0.876 µM | > 100 | 1.27 µM | 3.31 µM | 3.43 µM | > 100 µM | 0.637 µM | 9.44 | 0.782 µM | 4.54 µM | 0.75 µM | > 21 µM
7 | Cc1cc(-c2ccccc2)nc(Nc2cc3ccccc3[nH]2)n1 | – | > 100 µM | – | > 100 µM | – | > 100 µM | – | > 100 | – | > 100 | – | > 100 µM | – | > 100 µM | – | > 100 | – | > 100 µM | – | > 100 µM
8 | CCN1CCN(C(=O)[C@]23CC[C@@H](C)[C@H](C)[C@@H]2C2=CC[C@@H]4[C@@]5(C)CCC(=O)C(C)(C)[C@@H]5CC[C@@]4(C)[C@]2(C)CC3)CC1 | 1.08 µM | 2.9 µM | 1.03 µM | 2.22 µM | 0.913 µM | 2.05 µM | 0.794 µM | 1.61 | 0.976 µM | 2.74 | 0.843 µM | 1.54 µM | 1.1 µM | 2.89 µM | 0.98 µM | 2.18 | 0.821 µM | 1.52 µM | 0.82 µM | 1.59 µM
9 | Cc1nnc(N/N=C/c2ccc([N+](=O)[O-])o2)[nH]c1=O | 1.37 µM | > 100 µM | 0.575 µM | > 100 µM | 3.63 µM | > 100 µM | 2.89 µM | > 100 | 0.441 µM | – | 0.447 µM | > 51.6 µM | 0.785 µM | > 100 µM | 2.5 µM | > 100 | 0.659 µM | > 100 µM | 1.93 µM | > 100 µM
10 | CC1=CC(C)=N/C(=N/S(=O)(=O)c2cc(C)c(Cl)cc2SCc2ccccc2)NN1 | > 100 µM | > 100 µM | > 100 µM | > 100 µM | > 100 µM | > 100 µM | > 100 µM | > 100 | > 100 µM | > 100 | 81.1 µM | > 100 µM | > 100 µM | > 100 µM | > 100 µM | > 100 | > 100 µM | > 100 µM | > 100 µM | > 100 µM
11 | Cc1c(C(=O)Nc2ccc(N3C[C@@H](C)O[C@@H](C)C3)nc2)cccc1-c1ccc(OC(F)(F)F)cc1 | 5.98 µM and 12.4 µM | 25.5 µM and 40.4 µM | 12.7 µM and 9.64 µM | 59 µM and 50.4 µM | 11.9 µM and 15.1 µM | 41.7 µM and 64.4 µM | 14.4 µM and 19.3 µM | > 100 | 9.77 µM and 50 µM | > 100 | 6.74 µM and 10.5 µM | 22 µM and 27.3 µM | 7.9 µM and 10.8 µM | 30.9 µM and 46.3 µM | 7.25 µM and 22.7 µM | > 100 | 7.11 µM and 7.68 µM | 31.9 µM and 67.5 µM | 5.34 µM and 3.84 µM | 26.5 µM and 26.1 µM
12 | CCC[CH2][Sn]1([CH2]CCC)[O]C(=O)c2cccc([N+](=O)[O-])c2C(=O)[O]1 | 0.301 µM | 1.19 µM | 1.6 µM | 3.16 µM | 1.31 µM | 2.87 µM | 0.682 µM | 2.07 | 0.0617 µM | 0.683 | 0.497 µM | 1.73 µM | 1.04 µM | 2.24 µM | 0.206 µM | 1.35 | 0.259 µM | 0.7 µM | 1.55 µM | 2.95 µM
13 | COc1cc2c(cc1OC)C(Cl)C(c1ccc(Br)cc1)=C2Cl (centres undefined) | – | 23.8 µM | – | 34.6 µM | – | 28.5 µM | – | 23.3 | – | > 100 | – | 26.1 µM | – | 26.1 µM | – | > 67.3 | – | 24.4 µM | – | 30.5 µM
